These results are taken from ChEMBL document CHEMBL4145634, “Discovery of Janus Kinase 2 (JAK2) and Histone Deacetylase (HDAC) Dual Inhibitors as a Novel Strategy for the Combinational Treatment of Leukemia and Invasive Fungal Infections” (J Med Chem, 2018).

Values after ≈ are worked out from the molar mass of the structure shown. Some results are limits rather than exact numbers.

For assay [1], the system named is Candida albicans. The assay can be described thus: Antifungal activity against FLC resistant Candida albicans 100 after 48 hrs by checkerboard microdilution method. The format is functional. The note with it: Candida albicans, 100, 48 h.
Assay [2] has as its system Candida albicans. Briefly: microbe, parasite or virus in culture. The note with it: Candida albicans, 0710922, 48 h. It counts as functional.
Description: Antifungal activity against FLC resistant Candida albicans 0710922 after 48 hrs in presence of fluconazol by checkerboard microdilution method
The subject of assay [3] is Candida albicans. Briefly: microbe, parasite or virus in culture. The format is functional. The settings on record: Candida albicans, 0304103, 48 h.
Description: Antifungal activity against FLC resistant Candida albicans 0304103 after 48 hrs by checkerboard microdilution method
Assay [4] has as its system Candida albicans. Briefly: microbe, parasite or virus in culture. It counts as functional. The settings on record: Candida albicans, 0710922, 48 h. The source holds these as a separate data set.
Description: Antifungal activity against FLC resistant Candida albicans 0710922 after 48 hrs by checkerboard microdilution method
For assay [5], the system named is Candida albicans. Briefly: microbe, parasite or virus in culture. The format is functional. The note with it: Candida albicans, 100, 48 h.
Description: Antifungal activity against FLC resistant Candida albicans 100 assessed as fluconazol MIC50 after 48 hrs by checkerboard microdilution method
The subject of assay [6] is Candida albicans. The assay can be described thus: Synergistic antifungal activity against FLC resistant Candida albicans 100 assessed as FIC index after 48 hrs by checkerboard microdilution method. The format is functional.
Assay [7] deals with HL-60. Briefly: Antiproliferative activity against human HL60 cells after 48 hrs by CCK-8 assay. It counts as functional, cell-based. The settings on record: HL-60, 48 h.
Assay [8] deals with Candida albicans. The assay can be described thus: Antifungal activity against FLC resistant Candida albicans 100 after 48 hrs in presence of fluconazol by checkerboard microdilution method. The format is functional. The note with it: Candida albicans, 100, 48 h.
For assay [9], the system named is Candida albicans. The assay can be described thus: Synergistic antifungal activity against FLC resistant Candida albicans 0304103 assessed as FIC index after 48 hrs by checkerboard microdilution method. The format is functional.
Assay [10] relates to K562. Briefly: Antiproliferative activity against human K562 cells after 48 hrs by CCK-8 assay. The note with it: K562, 48 h. The format is functional, cell-based.
Assay [11] concerns Candida albicans. The assay can be described thus: microbe, parasite or virus in culture. The format is functional. The note with it: Candida albicans, 0304103, 48 h. The source holds these as a separate data set.
Description: Antifungal activity against FLC resistant Candida albicans 0304103 assessed as fluconazol MIC50 after 48 hrs by checkerboard microdilution method
Assay [12] deals with Candida albicans. The assay can be described thus: microbe, parasite or virus in culture. It counts as functional. The note with it: Candida albicans, 0710922, 48 h. The source holds these as a separate data set.
Description: Antifungal activity against FLC resistant Candida albicans 0710922 assessed as fluconazol MIC50 after 48 hrs by checkerboard microdilution method
Assay [13] relates to HEL. The assay can be described thus: Antiproliferative activity against human HEL cells after 48 hrs by CCK-8 assay. It counts as functional, cell-based.
The subject of assay [14] is Candida albicans. The assay can be described thus: Synergistic antifungal activity against FLC resistant Candida albicans 0710922 assessed as FIC index after 48 hrs by checkerboard microdilution method. The format is functional.
Assay [15] deals with Candida albicans. Briefly: microbe, parasite or virus in culture. The format is functional. The settings on record: Candida albicans, 0304103, 48 h. The source holds these as a separate data set.
Description: Antifungal activity against FLC resistant Candida albicans 0304103 after 48 hrs in presence of fluconazol by checkerboard microdilution method
For assay [16], the target named is Tyrosine-protein kinase JAK2 (Homo sapiens, UniProt O60674). Briefly: Inhibition of JAK2 (unknown origin) using FAM-labeled peptide as substrate preincubated for 10 mins followed by substrate addition and measured after 25 mins in presence of ATP.
Tyrosine-protein kinase JAK2, sequence (O60674 whole entry): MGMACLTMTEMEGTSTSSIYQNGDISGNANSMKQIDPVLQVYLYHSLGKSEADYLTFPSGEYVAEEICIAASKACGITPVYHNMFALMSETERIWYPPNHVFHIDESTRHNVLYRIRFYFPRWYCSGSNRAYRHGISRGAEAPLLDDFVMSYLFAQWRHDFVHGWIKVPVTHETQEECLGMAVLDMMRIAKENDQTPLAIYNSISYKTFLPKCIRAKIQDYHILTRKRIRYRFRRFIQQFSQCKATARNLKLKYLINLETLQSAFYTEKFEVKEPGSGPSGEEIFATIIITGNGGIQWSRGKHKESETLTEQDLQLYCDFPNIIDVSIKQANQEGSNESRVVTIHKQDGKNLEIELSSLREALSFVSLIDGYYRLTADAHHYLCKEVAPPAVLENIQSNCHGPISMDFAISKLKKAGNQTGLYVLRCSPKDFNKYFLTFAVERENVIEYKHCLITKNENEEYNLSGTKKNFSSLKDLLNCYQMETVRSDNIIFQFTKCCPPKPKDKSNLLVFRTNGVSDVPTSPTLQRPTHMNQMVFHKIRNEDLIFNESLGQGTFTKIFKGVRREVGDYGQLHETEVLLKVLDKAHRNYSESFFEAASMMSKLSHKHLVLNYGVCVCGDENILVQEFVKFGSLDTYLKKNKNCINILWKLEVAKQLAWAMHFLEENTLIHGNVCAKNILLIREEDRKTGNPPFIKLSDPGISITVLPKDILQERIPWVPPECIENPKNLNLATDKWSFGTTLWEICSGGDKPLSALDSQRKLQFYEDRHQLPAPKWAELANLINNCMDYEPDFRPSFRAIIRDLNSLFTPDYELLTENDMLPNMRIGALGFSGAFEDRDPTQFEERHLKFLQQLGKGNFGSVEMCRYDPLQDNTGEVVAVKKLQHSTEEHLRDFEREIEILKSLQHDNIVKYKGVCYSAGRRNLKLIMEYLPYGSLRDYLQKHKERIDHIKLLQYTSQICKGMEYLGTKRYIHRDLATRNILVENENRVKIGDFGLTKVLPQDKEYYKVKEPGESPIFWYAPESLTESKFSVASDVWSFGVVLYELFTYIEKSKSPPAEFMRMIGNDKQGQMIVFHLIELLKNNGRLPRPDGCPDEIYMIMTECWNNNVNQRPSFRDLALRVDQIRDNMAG
Assay [17] addresses Histone deacetylase 1 (Homo sapiens, UniProt Q13547). Briefly: Inhibition of full length human recombinant HDAC1 expressed in baculovirus expression system using (Ac-Leu-Gly-Lys(Ac)-AMC as substrate preincubated for 5 mins followed by substrate addition and measured after 30 mins by fluorescence assay.

Histone deacetylase 1, sequence (Q13547 whole entry): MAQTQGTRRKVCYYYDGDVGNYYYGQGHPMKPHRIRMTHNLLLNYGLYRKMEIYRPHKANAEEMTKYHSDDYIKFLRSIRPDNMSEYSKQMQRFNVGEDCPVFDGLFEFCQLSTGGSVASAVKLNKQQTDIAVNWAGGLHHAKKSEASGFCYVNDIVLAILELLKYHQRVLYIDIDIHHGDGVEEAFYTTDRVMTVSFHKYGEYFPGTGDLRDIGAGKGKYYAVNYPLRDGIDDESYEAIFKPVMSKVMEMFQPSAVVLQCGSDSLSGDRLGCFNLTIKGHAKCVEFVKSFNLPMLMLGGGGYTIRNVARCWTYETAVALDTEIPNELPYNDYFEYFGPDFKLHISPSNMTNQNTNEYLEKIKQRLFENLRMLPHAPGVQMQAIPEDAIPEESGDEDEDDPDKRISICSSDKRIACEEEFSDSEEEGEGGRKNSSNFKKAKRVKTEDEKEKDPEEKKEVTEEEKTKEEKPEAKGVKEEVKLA

For `CS(=O)(=O)Nc1ccc(-c2ccnc(Nc3ccc(N4CCC(C(=O)NCCCCCC(=O)NO)CC4)cc3)n2)cc1`, the MIC50 is 32 µg/mL in [1]; 64 µg/mL (≈ 107 µM) in assay [2]; 32 µg/mL (≈ 53.7 µM) in assay [3]; over 64 µg/mL in [4]; 0.25 µg/mL (≈ 0.42 µM) in [5]; 16 µg/mL in assay [8]. Also, the MIC50 is 0.5 µg/mL (≈ 0.839 µM) in assay [11], 64 µg/mL (≈ 107 µM) in assay [12] and 16 µg/mL (≈ 26.9 µM) in assay [15]. Also, the “fractional inhibitory concentration index (FICI)” value in assay [6] is reported as 0.5; in assay [9] it was 0.5; in assay [14], 2. Also, the IC50 in assay [7] is 37 µM; in assay [10] it was 10 µM; in [13], 17 µM; in assay [16], 0.003 µM; in assay [17], 0.35 µM.
As for `N#CCNC(=O)c1ccc(-c2ccnc(Nc3ccc(N4CCC(C(=O)NO)CC4)cc3)n2)cc1`, the MIC50 in assay [1] was over 64 µg/mL; in assay [2], 64 µg/mL (≈ 136 µM); in assay [3], over 64 µg/mL; in assay [4], over 64 µg/mL; in [5], 0.5 µg/mL (≈ 1.06 µM); in [8], 2 µg/mL. Moreover, the MIC50 was found to be 0.25 µg/mL (≈ 0.53 µM) in assay [11], 1 µg/mL (≈ 2.12 µM) in [12] and 8 µg/mL (≈ 17 µM) in assay [15]. For the same molecule, the “fractional inhibitory concentration index (FICI)” value in assay [6] turned out to be 0.039; in assay [9] it was 0.13; in assay [14] it was 1.02. In addition, the concentration for half-maximal inhibition (IC50) in assay [7] is over 50 µM; in [10], over 50 µM; in assay [13], over 50 µM; in assay [16], 0.004 µM; in [17] it was 2.7 µM.
With `CS(=O)(=O)Nc1ccc(-c2ccnc(Nc3ccc(N4CCC(C(=O)NCc5ccc(C(=O)NO)cc5)CC4)cc3)n2)cc1`, the MIC50 is over 64 µg/mL in [1]; 64 µg/mL (≈ 104 µM) in assay [2]; over 64 µg/mL in assay [3]; over 64 µg/mL in assay [4]; 1 µg/mL (≈ 1.62 µM) in assay [5]; 4 µg/mL in [8]. In addition, the figures for the MIC50 in assay [11], in [12] and in assay [15] were 2 µg/mL (≈ 3.25 µM), 0.5 µg/mL (≈ 0.812 µM) and 8 µg/mL (≈ 13 µM), respectively. For the same molecule, the “fractional inhibitory concentration index (FICI)” value in [6] was 0.078; in assay [9] it was 0.15; in assay [14], 1.01. Besides, the IC50 was over 50 µM in assay [7]; 10 µM in assay [10]; 6.3 µM in assay [13]; 0.018 µM in assay [16]; 1.1 µM in assay [17].
Take `CS(=O)(=O)Nc1ccc(-c2ccnc(Nc3ccc(N4CCC(C(=O)NCCCCC(=O)NO)CC4)cc3)n2)cc1`: the MIC50 in assay [1] was over 64 µg/mL; in [2], 32 µg/mL (≈ 55 µM); in assay [3] it was 32 µg/mL (≈ 55 µM); in assay [4], over 64 µg/mL; in assay [5], 0.5 µg/mL (≈ 0.86 µM); in [8] it was 16 µg/mL. In addition, the MIC50 turned out to be 0.5 µg/mL (≈ 0.86 µM) in [11], 0.5 µg/mL (≈ 0.86 µM) in assay [12] and 16 µg/mL (≈ 27.5 µM) in [15]. The “fractional inhibitory concentration index (FICI)” value in [6] came out at 0.26; in [9] it was 0.5; in assay [14], 0.51. Further, the IC50 in assay [7] was over 50 µM; in assay [10], 11 µM; in assay [13] it was 8.1 µM; in [16], 0.001 µM; in assay [17] it was 2.2 µM.
`N#CCNC(=O)c1ccc(-c2ccnc(Nc3ccc(N4CCC(C(=O)Nc5ccccc5N)CC4)cc3)n2)cc1`: the MIC50 was over 64 µg/mL in assay [1]; 64 µg/mL (≈ 117 µM) in assay [2]; over 64 µg/mL in assay [3]; over 64 µg/mL in assay [4]; over 64 µg/mL in assay [5]; over 64 µg/mL in assay [8]. Further, the figures for the MIC50 in assay [11], in assay [12] and in assay [15] were over 64 µg/mL, 64 µg/mL (≈ 117 µM) and over 64 µg/mL, respectively. For the same molecule, the “fractional inhibitory concentration index (FICI)” value is over 2 in assay [6], over 2 in [9] and 2 in assay [14]. Further, the IC50 in [7] is over 50 µM; in assay [10], over 50 µM; in assay [13], 6.6 µM; in [16], 0.008 µM; in assay [17] it was 1.7 µM.
Take `CS(=O)(=O)Nc1ccc(-c2ccnc(Nc3ccc(N4CCC(C(=O)Nc5ccc(C(=O)NO)cc5)CC4)cc3)n2)cc1`: the MIC50 in assay [1] was over 64 µg/mL; in assay [2], over 64 µg/mL; in assay [3] it was over 64 µg/mL; in assay [4], over 64 µg/mL; in assay [5], 16 µg/mL (≈ 26.6 µM); in assay [8] it was 64 µg/mL. The MIC50 in assay [11], in [12] and in [15] was over 64 µg/mL in each case. For the same molecule, the “fractional inhibitory concentration index (FICI)” value is listed as 1.25 in assay [6], over 2 in assay [9] and over 2 in [14]. Also, the IC50 in assay [7] was determined as 11 µM; in assay [10], 8.6 µM; in assay [13], 2 µM; in assay [16], 0.002 µM; in [17] it was 0.38 µM.
As for `CS(=O)(=O)Nc1ccc(-c2ccnc(Nc3ccc(N4CCC(C(=O)NCCCCCCC(=O)NO)CC4)cc3)n2)cc1`, the MIC50 in [1] is over 64 µg/mL; in assay [2] it was 32 µg/mL (≈ 52.5 µM); in [3] it was over 64 µg/mL; in assay [4] it was over 64 µg/mL; in assay [5], 0.25 µg/mL (≈ 0.41 µM); in assay [8], 8 µg/mL. Moreover, the MIC50 in assay [11] was 0.5 µg/mL (≈ 0.82 µM); in [12] it was 0.25 µg/mL (≈ 0.41 µM); in assay [15] it was 8 µg/mL (≈ 13.1 µM). Further, the “fractional inhibitory concentration index (FICI)” value was determined as 0.13 in [6], 0.13 in assay [9] and 0.5 in [14]. The IC50 in [7] worked out at 12 µM; in assay [10], 8.9 µM; in assay [13], 3.9 µM; in [16] it was 0.002 µM; in [17] it was 0.25 µM.
Turning to `CS(=O)(=O)Nc1ccc(-c2ccnc(Nc3ccc(N4CCC(C(=O)Nc5ccccc5N)CC4)cc3)n2)cc1`, the MIC50 in [1] was over 64 µg/mL; in [2], over 64 µg/mL; in assay [3] it was over 64 µg/mL; in assay [4], over 64 µg/mL; in [5], 64 µg/mL (≈ 115 µM); in assay [8], 64 µg/mL. In addition, the MIC50 in assay [11], in [12] and in assay [15] was over 64 µg/mL each time. The “fractional inhibitory concentration index (FICI)” value is recorded as 2 in assay [6], over 2 in assay [9] and over 2 in assay [14]. Further, the concentration for half-maximal inhibition (IC50) was 16 µM in assay [7]; 9.5 µM in [10]; 3.2 µM in assay [13]; 0.002 µM in [16]; 2.1 µM in assay [17].
For the molecule `CS(=O)(=O)Nc1ccc(-c2ccnc(Nc3ccc(N4CCC(C(=O)NO)CC4)cc3)n2)cc1`, the MIC50 in [1] was over 64 µg/mL; in assay [2], 32 µg/mL (≈ 66.3 µM); in assay [3] it was over 64 µg/mL; in [4], over 64 µg/mL; in [5] it was 1 µg/mL (≈ 2.07 µM); in [8] it was 8 µg/mL. For the same molecule, the values for the MIC50 in assay [11], in assay [12] and in [15] were 0.5 µg/mL (≈ 1.04 µM), 0.25 µg/mL (≈ 0.518 µM) and 4 µg/mL (≈ 8.29 µM), respectively. Further, the “fractional inhibitory concentration index (FICI)” value in [6] is recorded as 0.14; in assay [9] it was 0.07; in assay [14], 0.51. Besides, the IC50 in assay [7] was over 50 µM; in assay [10], 18 µM; in assay [13] it was over 50 µM; in assay [16], 0.001 µM; in [17] it was 2.9 µM.
